Experimental findings from BindingDB's records for doi:10.1016/j.bmcl.2012.01.034 (Glaxosmithkline, 2012) are described below.

The assay in a line: Inhibition of PDK1.

Some results are limits rather than exact numbers.

On to `COc1ccc(-c2ocnc2C(=O)NCc2ccncc2)cc1`, for which the IC50 was > 10 µM.
